As usually defined, the inhibition is the relative decrease from the control value, in per cent.

The record followed here is US5945436A, “Pyridylmethyl nitriles, amides and thioamides useful as fungicides” (Uniroyal Chemical Company, Inc., priority 1997, dated 1999).

One assay relates to Uromyces phaseoli. The assay can be described thus: Bean rust fungus eradicant test (URO PHA). The class given is in vivo. Particulars: pinto bean, eradicant spray 2 days after inoculation, 1,000 mg/l; for pest or weed control at 1000 µg/mL: Uromyces phaseoli, 216 h, read-out: Percent Reduction of Disease, URO PHA. In outline: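 Seven-day-old pinto bean plants (Phaseolus vulgaris, primary leaf) were inoculated with 20,000 spores/ml, held 24 h at 99% humidity and 21° C., then sprayed two days post-inoculation with acetone/TWEEN 20 emulsions at 1,000 mg/l. After nine days in a 21° C. greenhouse, disease was scored as percent reduction versus unsprayed controls.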

The next assay relates to Botrytis cinerea. As to the kind of experiment: Fungal growth inhibition, treated disc on agar (BOT CIN). The class given is cell-based. Particulars: disc dipped in 500 mg/l, 29° C.; for inhibition at 500 µg/mL: Botrytis cinerea, read-out: Percent Growth Inhibition, BOT CIN.
The next assay deals with Pythium ultimum. As to the kind of experiment: Fungal growth inhibition, treated disc on agar (PYT ULT). Format: cell-based. As to conditions: disc dipped in 500 mg/l, 29° C.; for inhibition at 500 µg/mL: Globisporangium ultimum, read-out: Percent Growth Inhibition, PYT ULT.
The subject of the next assay is Scierotinia minor. The assay can be described thus: Fungal growth inhibition, treated disc on agar (SCL MIN). Format: cell-based. As to conditions: disc dipped in 500 mg/l, 29° C.; for inhibition at 500 µg/mL: read-out: Percent Growth Inhibition, SCL MIN.
For a further assay, the system named is Septoria nodorum. As to the kind of experiment: Fungal growth inhibition, treated disc on agar (SEP NOD). The class given is cell-based. Particulars: disc dipped in 500 mg/l, 29° C.; for inhibition at 500 µg/mL: Parastagonospora nodorum, read-out: Percent Growth Inhibition, SEP NOD.
A further assay relates to Erysiphe cichoracearum. The assay can be described thus: Powdery mildew of cucumber, systemic root uptake (CMS). The class given is in vivo. Particulars: 45 ml of 250 mg/l, 8 days after inoculation. An outline of the steps:
(§1)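 Pot soil of barley (BMS) and cucumber (CMS) plants was drenched with 45 ml of a 250 mg/l acetone/Tween 20 aqueous emulsion, with untreated plants as controls. Disease was scored on a rating scale that included intermediate grades.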

The test system of another assay is Erysiphe polygoni. As to the kind of experiment: Powdery mildew on pinto bean, foliar application (ERY POL). The class given is in vivo. Particulars: similar procedure as barley (1,000 mg/l); for pest or weed control at 1000 µg/mL: Erysiphe polygoni, read-out: Percent Reduction of Disease, ERY POL. An outline of the steps:
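Pinto bean plants sprayed with compound emulsion (acetone or inert solvent, TWEEN 20, water) at 1,000 mg/l, or left unsprayed, dried, then inoculated with Erysiphe polygoni spores in a 21° C greenhouse. Disease scored; percent control computed against untreated controls.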

The next assay relates to Pyricularia oryzae. The assay can be described thus: whole plant or invertebrate. The class given is in vivo. As to conditions: for pest or weed control at 1000 µg/mL: Pyricularia oryzae, in Hordeum vulgare, foliar, 216 h, read-out: Percent Reduction of Disease, PYR ORY, barley, foliar, 1,000 mg/l.
For the next assay, the system named is Erysiphe graminis. As to the kind of experiment: Powdery mildew of barley, systemic root uptake (BMS). The class given is in vivo. Particulars: 45 ml of 250 mg/l, 8 days after inoculation. An outline of the steps: as §1
For a further assay, the system named is Fusarium oxysporum. The assay can be described thus: Fungal growth inhibition, treated disc on agar (FUS OXY). Format: cell-based. Particulars: disc dipped in 500 mg/l, 29° C.; for inhibition at 500 µg/mL: Fusarium oxysporum, read-out: Percent Growth Inhibition, FUS OXY.
The subject of another assay is Colletotrichum gossypii. As to the kind of experiment: Fungal growth inhibition, treated disc on agar (COL GOS). The class given is cell-based. Particulars: disc dipped in 500 mg/l, 29° C.; for inhibition at 500 µg/mL: Colletotrichum gossypii, read-out: Percent Growth Inhibition, COL GOS.

Text for Botrytis cinerea: Filter paper discs, each 11 mm. in diameter, were dipped in each of the test solutions. The discs were allowed to air dry to drive off the acetone solvent. A number of untreated discs were used as controls.
The treated and untreated discs were then placed on agar plates and one of the following fungus species: Septoria nodorum (SEP NOD), Botrytis cinerea (BOT CIN), Fusarium oxysporum (FUS OXY), Pythium ultimum (PYT ULT), Rhizoctonia solani (RHI SOL), Colletotrichum gossypii (COL GOS), and Scierotinia minor (SCL MIN), was added to the center of each disc in the form of a culture plug with the fungus mat in contact with the paper of the test disc. Cercosporidium personatum (CER PER), was added to discs as a spore suspension (20,000 spores/ml) to the disc (two drops of spore suspension per disc), rather than a mycelial culture plug. The plates were then incubated at 29° C. in an oven.
With the exception of the discs containing Cercosporidium personatum, the discs were evaluated by first measuring the radius from the center of the fungus colony on the treated discs and on the untreated discs. Percent growth inhibition of each of the compounds tested was determined as a function of the difference between the radius of the fungus colony on the treated disc versus the radius of the fungus colony on the untreated disc.

With `CCCCCC(C#N)(CCc1ccc(F)cc1)c1cccnc1` (centres unmarked) [Compound 60], the pest or weed control at 1000 µg/mL in the assay with Uromyces phaseoli turned out to be 50%; in the assay with Erysiphe polygoni, 90%; in the assay with Pyricularia oryzae it was 70%. Besides, the inhibition at 500 µg/mL with Botrytis cinerea is 100%; in the assay with Pythium ultimum, 50%; in the assay with Scierotinia minor, 100%; with Septoria nodorum, 100%; in the assay with Fusarium oxysporum, 20%; with Colletotrichum gossypii, 30%. In the assay with Erysiphe cichoracearum, the “Percent Reduction of Disease, CMS” value is 0%. The “Percent Reduction of Disease, BMS” value in the assay with Erysiphe graminis is 75%.
Take `C#CCC(CCc1ccccc1)(C(N)=S)c1cccnc1` (stereo not drawn) [Compound 61, α-(2-phenylethyl)-α-(2-propynyl)-3-pyridinethanethioamide]: the figures for the pest or weed control at 1000 µg/mL in the assay on Uromyces phaseoli, in the assay on Erysiphe polygoni and with Pyricularia oryzae were 0%, 100% and 50%, respectively. Moreover, the inhibition at 500 µg/mL with Botrytis cinerea was found to be 100%; in the assay with Pythium ultimum, 100%; with Scierotinia minor, 100%; in the assay with Septoria nodorum, 20%; in the assay with Fusarium oxysporum, 100%; in the assay on Colletotrichum gossypii, 100%. Further, the “Percent Reduction of Disease, CMS” value in the assay on Erysiphe cichoracearum is 40%. Moreover, in the assay on Erysiphe graminis, the “Percent Reduction of Disease, BMS” value stood at 20%.
Consider `CCCCCC(CCc1ccc(F)cc1)(C(N)=O)c1cccnc1` (centres unmarked) [Compound 62], for which the pest or weed control at 1000 µg/mL in the assay with Uromyces phaseoli amounted to 35%; in the assay with Erysiphe polygoni it was 100%; with Pyricularia oryzae, 0%. The inhibition at 500 µg/mL with Botrytis cinerea was 0%; with Pythium ultimum, 5%; in the assay with Scierotinia minor, 100%; with Septoria nodorum, 0%; in the assay with Fusarium oxysporum, 10%; in the assay with Colletotrichum gossypii, 25%. The “Percent Reduction of Disease, CMS” value in the assay with Erysiphe cichoracearum is on record as 20%. In addition, the “Percent Reduction of Disease, BMS” value in the assay with Erysiphe graminis is 20%.
For `CCCCC(C#N)(CCCc1ccccc1OC)c1cccnc1` (centres unmarked) [Compound 63], the results for the pest or weed control at 1000 µg/mL in the assay on Uromyces phaseoli, with Erysiphe polygoni and in the assay with Pyricularia oryzae were 0%, 100% and 0%, respectively. In addition, the inhibition at 500 µg/mL is 40% with Botrytis cinerea; 10% in the assay with Pythium ultimum; 100% with Scierotinia minor; 100% with Septoria nodorum; 20% in the assay with Fusarium oxysporum; 25% in the assay with Colletotrichum gossypii. For the same compound, the “Percent Reduction of Disease, CMS” value in the assay with Erysiphe cichoracearum was 0%. For the same compound, the “Percent Reduction of Disease, BMS” value in the assay on Erysiphe graminis is reported as 0%.
Regarding `N#CC(CCCF)(CCc1ccc(F)cc1)c1cccnc1` (centres unmarked) [Compound 64], the pest or weed control at 1000 µg/mL in the assay with Uromyces phaseoli was determined as 70%; in the assay with Erysiphe polygoni, 100%; with Pyricularia oryzae it was 20%. Further, the inhibition at 500 µg/mL with Botrytis cinerea turned out to be 100%; in the assay with Pythium ultimum, 0%; in the assay with Scierotinia minor, 50%; in the assay with Septoria nodorum, 100%; in the assay with Fusarium oxysporum it was 100%; with Colletotrichum gossypii it was 55%. In the assay on Erysiphe cichoracearum, the “Percent Reduction of Disease, CMS” value was 0%. Moreover, the “Percent Reduction of Disease, BMS” value in the assay on Erysiphe graminis was determined as 20%.
In the case of `N#CC(CCCF)(CCc1ccccc1F)c1cccnc1` (centres unmarked) [Compound 66], the pest or weed control at 1000 µg/mL came out at 70% in the assay with Uromyces phaseoli, 100% with Erysiphe polygoni and 0% with Pyricularia oryzae. Also, the inhibition at 500 µg/mL in the assay with Botrytis cinerea was 100%; with Pythium ultimum, 0%; in the assay with Scierotinia minor, 100%; in the assay with Septoria nodorum it was 100%; in the assay with Fusarium oxysporum it was 100%; in the assay on Colletotrichum gossypii, 100%. In addition, the “Percent Reduction of Disease, CMS” value with Erysiphe cichoracearum is given as 40%. The “Percent Reduction of Disease, BMS” value in the assay with Erysiphe graminis was determined as 100%.
On to `C=CCC(C#N)(CCc1ccccc1F)c1cccnc1` (centres unmarked) [Compound 67], for which the pest or weed control at 1000 µg/mL worked out at 50% with Uromyces phaseoli, 100% in the assay on Erysiphe polygoni and 0% with Pyricularia oryzae. In addition, the inhibition at 500 µg/mL in the assay with Botrytis cinerea came to 100%; with Pythium ultimum, 20%; with Scierotinia minor it was 100%; in the assay on Septoria nodorum it was 100%; in the assay on Fusarium oxysporum, 100%; in the assay on Colletotrichum gossypii, 100%. Moreover, in the assay with Erysiphe cichoracearum, the “Percent Reduction of Disease, CMS” value turned out to be 20%. Also, the “Percent Reduction of Disease, BMS” value in the assay on Erysiphe graminis came to 100%.
Turning to `CCCCC(C#N)(CCc1ccc(OCCF)cc1)c1cccnc1` (centres unmarked) [Compound 68], the pest or weed control at 1000 µg/mL in the assay on Uromyces phaseoli amounted to 50%; with Erysiphe polygoni, 100%; in the assay with Pyricularia oryzae, 70%. In addition, the inhibition at 500 µg/mL came to 100% in the assay on Botrytis cinerea; 40% with Pythium ultimum; 100% with Scierotinia minor; 100% in the assay with Septoria nodorum; 100% with Fusarium oxysporum; 100% in the assay on Colletotrichum gossypii. For the same compound, the “Percent Reduction of Disease, CMS” value in the assay with Erysiphe cichoracearum amounted to 0%. Also, the “Percent Reduction of Disease, BMS” value in the assay with Erysiphe graminis came out at 0%.
As for `CCCCC(C#N)(CCc1ccc(OCCC)cc1)c1cccnc1` (centres unmarked) [Compound 69], the “Percent Reduction of Disease, URO PHA” value with Uromyces phaseoli came to 0%. Moreover, the “Percent Growth Inhibition, BOT CIN” value in the assay on Botrytis cinerea was found to be 70%. For the same compound, the “Percent Growth Inhibition, PYT ULT” value in the assay on Pythium ultimum turned out to be 35%. Moreover, the “Percent Growth Inhibition, SCL MIN” value with Scierotinia minor was 100%. The “Percent Growth Inhibition, SEP NOD” value with Septoria nodorum was 100%. The “Percent Reduction of Disease, CMS” value in the assay on Erysiphe cichoracearum is on record as 20%. Moreover, the “Percent Reduction of Disease, ERY POL” value in the assay on Erysiphe polygoni worked out at 100%. For the same compound, the “Percent Reduction of Disease, PYR ORY” value with Pyricularia oryzae (barley, foliar, 1,000 mg/l) is listed as 0%. The “Percent Reduction of Disease, BMS” value in the assay on Erysiphe graminis amounted to 0%. For the same compound, the “Percent Growth Inhibition, FUS OXY” value in the assay with Fusarium oxysporum is 30%. For the same compound, the “Percent Growth Inhibition, COL GOS” value in the assay on Colletotrichum gossypii was found to be 100%.
As to `C=CCC(C#N)(CCCc1ccccc1OC)c1cccnc1` (centres unmarked) [Compound 70], the pest or weed control at 1000 µg/mL with Uromyces phaseoli worked out at 17%; with Erysiphe polygoni, 92%; with Pyricularia oryzae, 0%. The inhibition at 500 µg/mL with Botrytis cinerea was 100%; in the assay with Pythium ultimum it was 49%; with Scierotinia minor, 100%; with Septoria nodorum it was 100%; in the assay on Fusarium oxysporum, 25%; with Colletotrichum gossypii, 100%. Also, the “Percent Reduction of Disease, CMS” value in the assay on Erysiphe cichoracearum turned out to be 0%. The “Percent Reduction of Disease, BMS” value with Erysiphe graminis is recorded as 40%.
For the compound `CCCC(C#N)(CCCc1ccccc1OC)c1cccnc1` (centres unmarked) [Compound 71], the pest or weed control at 1000 µg/mL in the assay with Uromyces phaseoli was 92%; in the assay with Erysiphe polygoni, 100%; in the assay on Pyricularia oryzae, 0%. Further, the inhibition at 500 µg/mL with Botrytis cinerea was found to be 100%; in the assay on Pythium ultimum, 60%; in the assay on Scierotinia minor, 100%; in the assay with Septoria nodorum it was 100%; with Fusarium oxysporum it was 72%; with Colletotrichum gossypii, 100%. Besides, the “Percent Reduction of Disease, CMS” value in the assay with Erysiphe cichoracearum turned out to be 80%. For the same compound, in the assay with Erysiphe graminis, the “Percent Reduction of Disease, BMS” value is recorded as 100%.
Consider `CCCC(C#N)(CCc1ccccc1C(F)(F)F)c1cccnc1` (centres unmarked) [Compound 72], for which the pest or weed control at 1000 µg/mL stood at 0% in the assay with Uromyces phaseoli, 92% in the assay with Erysiphe polygoni and 0% with Pyricularia oryzae. Further, the inhibition at 500 µg/mL with Botrytis cinerea worked out at 100%; with Pythium ultimum it was 71%; in the assay with Scierotinia minor it was 100%; in the assay on Septoria nodorum, 100%; with Fusarium oxysporum, 16%; in the assay with Colletotrichum gossypii it was 100%. Also, the “Percent Reduction of Disease, CMS” value in the assay on Erysiphe cichoracearum is given as 80%. Besides, the “Percent Reduction of Disease, BMS” value in the assay with Erysiphe graminis is 90%.
Turning to `CCCCC(C#N)(CCc1ccccc1C(F)(F)F)c1cccnc1` (centres unmarked) [Compound 73], the pest or weed control at 1000 µg/mL in the assay on Uromyces phaseoli came out at 100%; in the assay on Erysiphe polygoni it was 100%; in the assay with Pyricularia oryzae it was 0%. In addition, the inhibition at 500 µg/mL in the assay on Botrytis cinerea is 100%; with Pythium ultimum, 69%; with Scierotinia minor it was 100%; in the assay on Septoria nodorum it was 70%; in the assay with Fusarium oxysporum, 75%; with Colletotrichum gossypii, 85%. The “Percent Reduction of Disease, CMS” value in the assay with Erysiphe cichoracearum turned out to be 0%. In addition, in the assay on Erysiphe graminis, the “Percent Reduction of Disease, BMS” value is listed as 100%.
